From paper PMC7615677 (Science translational medicine, 2023)
Like-named read-outs stand apart in the source and are kept apart here.

Columns and labels:
THP-1 = assay: MitoXpress oxygen consumption assay; type: cell-based
[1] = test system: remaining CYP isoforms other than CYP1A2 and CYP3A4/5 (CYP2B6, CYP2C8, CYP2C9, CYP2C19, CYP2D6); assay: Cytochrome P450 inhibition, human liver microsomes; type: in vitro ADME; details: remaining isoforms (other than CYP1A2 and CYP3A4/5)
Procedure: (§1) Direct CYP inhibition studies were conducted using conditions described previously ([43]) following incubation of isoform-specific substrates with human liver microsomes. The formation of known metabolites mediated by a specific CYP isoform was monitored. CYP isoform-specific pathways (and positive control inhibitors) included CYP1A2: phenacetin O-deethylation (furafylline), CYP2B6: bupropion hydroxylation (PPP), CYP2C8: amodiaquine deethylation (quercetin) CYP2C9: tolbutamide methylhydroxylation (sulfaphenazole), CYP2C19: (S)-mephenytoin 4’-hydroxylation (ticlopidine), CYP2D6: dextromethorphan O-demethylation (quinidine), and CYP3A: midazolam 1’-hydroxylation and testosterone 6β-hydroxylation (ketoconazole). […] The organic solvent content was maintained at less than 1% (v/v). NADPH was added to initiate the reaction which was then quenched by the addition of acetonitrile containing internal standard at specified times. Concentrations of the isoform-specific metabolites were quantified by LC-MS (Waters Xevo TQD triple quadrupole MS coupled to a Waters Acquity UPLC system) relative to calibration standards prepared in pre-quenched microsomal matrix.

[2] = In vitro cytotoxicity assay; type: cell-based; details: monkey, Vero monkey kidney epithelial cells
CYP2C8 = molecular target: T1, CYP2C8 (Homo sapiens, UniProt P10632); assay: Cytochrome P450 inhibition, human liver microsomes; type: in vitro ADME
T1 construct: incubation of isoform-specific substrates with human liver microsomes; from tissue; host or cells: human liver microsomes
T1 sequence (P10632 1-490): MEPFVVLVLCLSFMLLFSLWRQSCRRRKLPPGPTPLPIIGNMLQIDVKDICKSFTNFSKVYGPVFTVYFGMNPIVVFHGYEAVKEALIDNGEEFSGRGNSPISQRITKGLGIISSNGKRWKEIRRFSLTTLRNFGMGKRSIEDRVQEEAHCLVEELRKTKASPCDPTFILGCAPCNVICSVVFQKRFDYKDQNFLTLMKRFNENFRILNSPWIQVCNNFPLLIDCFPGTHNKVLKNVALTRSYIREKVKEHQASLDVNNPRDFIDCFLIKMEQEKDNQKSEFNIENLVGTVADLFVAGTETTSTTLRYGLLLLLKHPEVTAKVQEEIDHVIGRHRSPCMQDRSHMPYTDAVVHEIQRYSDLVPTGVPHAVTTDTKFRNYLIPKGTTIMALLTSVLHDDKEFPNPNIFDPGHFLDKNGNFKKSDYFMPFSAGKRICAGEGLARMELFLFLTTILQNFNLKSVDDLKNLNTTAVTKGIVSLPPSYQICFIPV
Procedure: as §1
(§2) Time dependent inhibition was assessed using an “IC50 shift” method based on a previous publication ([44]). […] A shift in the IC50 in the presence of NADPH (relative to the absence) was used as an indication of time dependent inhibition. Reference direct and time-dependent inhibitors were included in the assays.

CYP1A2 = molecular target: T2, CYP1A2 (Homo sapiens, UniProt P05177); assay: Cytochrome P450 inhibition, human liver microsomes; type: in vitro ADME
T2 construct: incubation of isoform-specific substrates with human liver microsomes; from tissue; host or cells: human liver microsomes
T2 sequence (P05177 1-516): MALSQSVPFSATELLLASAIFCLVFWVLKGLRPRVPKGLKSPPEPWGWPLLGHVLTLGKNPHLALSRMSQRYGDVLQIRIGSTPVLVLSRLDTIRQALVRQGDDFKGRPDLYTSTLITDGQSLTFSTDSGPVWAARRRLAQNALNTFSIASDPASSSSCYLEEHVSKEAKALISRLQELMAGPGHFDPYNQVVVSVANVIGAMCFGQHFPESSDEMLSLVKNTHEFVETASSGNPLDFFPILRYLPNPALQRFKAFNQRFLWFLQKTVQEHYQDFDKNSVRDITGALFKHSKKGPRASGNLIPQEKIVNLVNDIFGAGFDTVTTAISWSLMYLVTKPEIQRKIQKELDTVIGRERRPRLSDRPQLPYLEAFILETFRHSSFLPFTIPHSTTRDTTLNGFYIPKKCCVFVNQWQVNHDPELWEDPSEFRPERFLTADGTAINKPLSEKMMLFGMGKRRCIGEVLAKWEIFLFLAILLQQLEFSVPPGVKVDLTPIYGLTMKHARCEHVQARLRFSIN
Procedure: as §1, §2

CYP2C19 = molecular target: T3, CYP2C19 (Homo sapiens, UniProt P33261); assay: Cytochrome P450 inhibition, human liver microsomes; type: in vitro ADME
T3 construct: incubation of isoform-specific substrates with human liver microsomes; from tissue; host or cells: human liver microsomes
T3 sequence (P33261 whole entry, canonical isoform): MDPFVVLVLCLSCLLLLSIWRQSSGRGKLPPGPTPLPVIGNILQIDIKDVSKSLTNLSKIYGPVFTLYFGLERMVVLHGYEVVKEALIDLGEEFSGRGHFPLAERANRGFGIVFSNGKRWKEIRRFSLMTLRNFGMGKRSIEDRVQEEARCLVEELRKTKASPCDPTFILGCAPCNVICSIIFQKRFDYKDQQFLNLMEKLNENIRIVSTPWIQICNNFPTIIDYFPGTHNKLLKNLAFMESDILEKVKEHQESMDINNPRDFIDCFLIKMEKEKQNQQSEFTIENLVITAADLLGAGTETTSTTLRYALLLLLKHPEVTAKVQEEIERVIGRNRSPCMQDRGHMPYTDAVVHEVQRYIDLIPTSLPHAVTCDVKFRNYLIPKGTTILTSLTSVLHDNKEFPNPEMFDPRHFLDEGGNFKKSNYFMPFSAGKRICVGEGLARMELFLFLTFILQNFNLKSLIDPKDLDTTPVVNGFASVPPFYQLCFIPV
Procedure: as §1, §2

CYP2B6 = molecular target: T4, CYP2B6 (Homo sapiens, UniProt P20813); assay: Cytochrome P450 inhibition, human liver microsomes; type: in vitro ADME
T4 construct: incubation of isoform-specific substrates with human liver microsomes; from tissue; host or cells: human liver microsomes
T4 sequence (P20813 1-491): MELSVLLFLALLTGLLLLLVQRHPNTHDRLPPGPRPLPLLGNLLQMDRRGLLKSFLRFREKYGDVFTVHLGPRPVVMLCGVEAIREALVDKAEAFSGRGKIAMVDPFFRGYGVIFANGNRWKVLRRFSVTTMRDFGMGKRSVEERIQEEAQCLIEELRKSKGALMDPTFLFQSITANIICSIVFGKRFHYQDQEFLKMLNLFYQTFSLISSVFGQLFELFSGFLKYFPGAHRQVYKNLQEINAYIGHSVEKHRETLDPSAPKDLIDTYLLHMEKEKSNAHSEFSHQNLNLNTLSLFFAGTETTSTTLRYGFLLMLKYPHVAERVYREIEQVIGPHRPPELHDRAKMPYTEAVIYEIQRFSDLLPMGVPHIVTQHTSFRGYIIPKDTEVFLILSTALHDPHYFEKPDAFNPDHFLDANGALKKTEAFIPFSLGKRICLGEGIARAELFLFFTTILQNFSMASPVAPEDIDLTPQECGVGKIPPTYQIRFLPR
Procedure: as §1, §2

CYP2D6 = molecular target: T5, CYP2D6 (Homo sapiens, UniProt P10635); assay: Cytochrome P450 inhibition, human liver microsomes; type: in vitro ADME
T5 construct: incubation of isoform-specific substrates with human liver microsomes; from tissue; host or cells: human liver microsomes
T5 sequence (P10635 whole entry, canonical isoform): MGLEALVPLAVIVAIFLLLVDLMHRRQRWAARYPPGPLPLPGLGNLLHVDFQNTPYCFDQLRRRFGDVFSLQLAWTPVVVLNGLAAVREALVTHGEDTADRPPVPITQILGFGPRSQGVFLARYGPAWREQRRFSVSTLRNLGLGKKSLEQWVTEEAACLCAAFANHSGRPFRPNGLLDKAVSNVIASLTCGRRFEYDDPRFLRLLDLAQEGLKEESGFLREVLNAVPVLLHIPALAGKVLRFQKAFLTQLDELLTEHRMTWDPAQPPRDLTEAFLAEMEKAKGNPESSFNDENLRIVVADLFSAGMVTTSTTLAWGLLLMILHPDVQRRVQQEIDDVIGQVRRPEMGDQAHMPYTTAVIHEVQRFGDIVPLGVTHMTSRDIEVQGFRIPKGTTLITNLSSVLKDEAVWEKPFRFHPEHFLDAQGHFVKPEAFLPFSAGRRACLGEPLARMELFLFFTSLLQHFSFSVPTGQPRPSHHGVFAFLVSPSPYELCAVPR
Procedure: as §1, §2

CYP3A4/5 = assay: Cytochrome P450 inhibition, human liver microsomes; type: in vitro ADME; details: for IC50: read-out: Direct inhibition IC50; for IC50 at 30 min: read-out: Time-dependent inhibition IC50
Procedure: as §1, §2

[3] = with NADPH preincubation, read-out: Time-dependent inhibition IC50
[4] = without NADPH preincubation, read-out: Time-dependent inhibition IC50

Cc1[nH]c2nc(N)nc(C)c2c1-c1ccc(C#N)c2c1OCO2 [DNDI-6174]
XC50 (THP-1): > 50 µM
pXC50 (THP-1): < 4.3
IC50 [1]: > 15 µM
CC50 [2]: > 50 µM
IC50 (CYP2C8; CYP2C8, read-out: Direct inhibition IC50): > 20 µM
IC50 (CYP2C8; [3]): 3.2 µM
IC50 (CYP2C8; [4]): > 20 µM
IC50 (CYP1A2; CYP1A2, read-out: Direct inhibition IC50): 5.1 µM
IC50 (CYP1A2; [3]): 1 µM
IC50 (CYP1A2; [4]): 3.4 µM
IC50 (CYP2C19; CYP2C19, read-out: Direct inhibition IC50): 19 µM
IC50 (CYP2C19; [3]): 7.4 µM
IC50 (CYP2C19; [4]): 13.6 µM
IC50 (CYP2B6; CYP2B6, read-out: Direct inhibition IC50): > 20 µM
IC50 (CYP2B6; [3]): > 20 µM
IC50 (CYP2B6; [4]): > 20 µM
IC50 (CYP2D6; CYP2D6, read-out: Direct inhibition IC50): 19 µM
IC50 (CYP2D6; [3]): 0.49 µM
IC50 (CYP2D6; [4]): 9.8 µM
IC50 (CYP3A4/5; probe midazolam (1'-hydroxylation), CYP3A4/5, midazolam): > 20 µM
IC50 at 30 min (CYP3A4/5; probe midazolam (1'-hydroxylation), midazolam, with NADPH preincubation): 1.9 µM
IC50 at 30 min (CYP3A4/5; probe midazolam (1'-hydroxylation), midazolam, without NADPH preincubation): > 20 µM
IC50 (CYP3A4/5; probe testosterone (6β-hydroxylation), CYP3A4/5, testosterone): 12.3 µM
IC50 at 30 min (CYP3A4/5; probe testosterone (6β-hydroxylation), testosterone, with NADPH preincubation): 0.71 µM
IC50 at 30 min (CYP3A4/5; probe testosterone (6β-hydroxylation), testosterone, without NADPH preincubation): 8 µM
